Laboratory results as given in publication PMC4595804, “A strategy to discover decoy chemokine ligands with an anti-inflammatory activity” (Scientific Reports, 2015).

What was measured:
CCL2 = molecular target: T1, CCL2 (Homo sapiens, UniProt P13500); assay: Selectivity, neutraligand protocol, EGFP-CCR2+ HEK cells; format: cell-based; conditions: 10 μM compound, 5 nM CCL2, EGFP-CCR2+ HEK cells
T1 construct: purchased R&D systems
Procedure: (§1) Figure 6 (a) Selectivity of CCL17 and CCL22 neutraligands towards 10 chemokines according to the “neutraligand protocol”. […] Each column represents the mean (block) ± SD (bars) of n = 3 experiments performed in triplicate. *p < 0.05; **p < 0.01; ***p < 0.005 as compared to chemokine + DMSO. (b) Chemokine neutraligands inhibited CCR4 endocytosis induced by CCL22 or CCL17. EGFP-CCR4^+ HEK cells were incubated for 30 min with DMSO or chemokine (100 nM CCL22 or CCL17) in the presence or absence of test compounds. […] Cell surface EGFP-tagged CCR4 receptors were measured by EGFP antibody labeling and flow cytometry analysis. CCR4 internalization was expressed as a percentage of total receptor surface expression calculated using control cells incubated with DMSO (100%). […] The number of migrating cells in the presence of chemokine and compounds were expressed as the corresponding percentages. Results were analyzed by fitting the experimental curves (% of migrating cells vs log compound concentration) using the Kaleidagraph software program, and the corresponding IC50 values were calculated. […]
Dye loaded cells were placed in the FlexStation 3 (Molecular Devices). Calcium mobilization was measured at 401 and 475 nm emission fluorescence after excitation at 355 nm. […] Raw fluorescence data (at 401 and 475 nm) were exported and the ratio 401/475 was calculated. […]

CCL22 = molecular target: T2, CCL22 (Homo sapiens, UniProt O00626); assay: CCL22-induced CCR4+ HUT78 T cell chemotaxis (Transwell), neutraligand protocol; format: cell-based; conditions: 3 nM CCL22 preincubated 1 h with compound; read-out: IC50, inhibition of CCL22-induced HUT78 chemotaxis
T2 construct: codes for the mature CCL17 or CCL22 with an N-terminal thioredoxin-hexahistidin (TRX- (His)6) tag; thioredoxin (TRX) (N, cleaved yes); (His)6 (N, cleaved yes); made in house; host or cells: E. coli BL21 (DE3)
T2 sequence (O00626 25-93): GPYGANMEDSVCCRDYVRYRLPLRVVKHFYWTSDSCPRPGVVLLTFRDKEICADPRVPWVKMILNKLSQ
Procedure: as §1
The T- cell line, HUT78 (ATCC), was cultured in RPMI 1640 supplemented with streptomycin, penicillin and 10% FCS without phenol red. […] After a 2 h incubation at 37 °C and 5%CO2, the plates were read with an excitation wavelength of 485 nm and an emission wavelength of 535 nm. […]

T1 sequence (P13500 24-99): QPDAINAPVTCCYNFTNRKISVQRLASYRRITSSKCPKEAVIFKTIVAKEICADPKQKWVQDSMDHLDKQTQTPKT

O=C(OCC(O)CO)c1ccccc1O (centres unmarked) [GPN136, 2,3-dihydroxypropyl 2-hydroxybenzoate]
effect on calcium responses induced by CCL2 (CCL2): no effect | IC50 (CCL22): 0.34 ± 0.1 nM
